In patent publication US20130090385A1, “NOVEL SPECIFIC CASPASE-10 INHIBITORS” (MERCK PATENT GESELLSCHAFT MIT BESCHRANKTER HAFTUNG, priority 2005, published 2013):
Read-outs that look alike come from different tables or passages of the source. Where a SMILES comes first, the peptide text is derived from it. The star is where a group is joined. Cbz = O=C(OCc1ccccc1)*; CH2F = FC*

Assays:
[1] = target: T1, Recombinant human caspase-2 (Homo sapiens, UniProt P42575); assay: delayed-time fluorescence caspase inhibition test, caspase-2
T1 sequence (P42575 1-452): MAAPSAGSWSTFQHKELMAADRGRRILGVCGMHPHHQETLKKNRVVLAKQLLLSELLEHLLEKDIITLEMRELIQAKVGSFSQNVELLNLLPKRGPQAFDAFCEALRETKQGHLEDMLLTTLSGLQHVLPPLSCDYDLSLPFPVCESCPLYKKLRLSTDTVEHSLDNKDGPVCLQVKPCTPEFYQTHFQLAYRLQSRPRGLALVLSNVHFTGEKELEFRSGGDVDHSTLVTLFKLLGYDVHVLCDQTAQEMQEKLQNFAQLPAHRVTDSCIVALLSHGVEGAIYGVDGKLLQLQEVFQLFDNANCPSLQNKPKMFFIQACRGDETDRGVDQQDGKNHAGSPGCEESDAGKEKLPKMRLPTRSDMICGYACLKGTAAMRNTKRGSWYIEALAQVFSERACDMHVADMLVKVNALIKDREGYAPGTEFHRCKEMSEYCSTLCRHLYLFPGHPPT
Procedure: (§1) The substrate used is a tetrapeptide specific to this caspase, having at one of its ends a fluorescent europium marker (W1284) and at the other end a europium chelate fluorescence quencher (QSy-7): Eu-W1284-CIETDK-QSy-7.
(§2) The caspase cleaves the substrate, releasing the quencher. Thus, by excitation at 340 nm, the signal emitted by the fluorescence of the europium is read by WALLAC Victor^2 reader at 615 nm.
(§3) They are ready for use or may be divided into aliquots and stored at −80° C.. […] 20 μl of this solution are distributed per well of the assay plate. […] The assay is performed with 1 U of enzyme per well, by distributing 20 μl of the diluted solution per well. • The standard inhibitors: The standard inhibitors are dissolved in DMSO to a concentration of 10 mM. They are tested at IC20 and at IC50 on the caspases they inhibit (see following table).
(§4) They are then distributed in the wells using this solution to reach the final concentration of IC20 or IC50, i.e. 3 μl in 33 μl of final reaction volume (dilution 1/11). Thus, the final concentration of DMSO in the well is 0.3% (v/v) final. […] An intermediate dilution (1/6.6) is prepared in DMSO by diluting 10 μl of the concentrated solution in 66 μl of DMSO (final volume). […] The inhibitors are then distributed in the wells to reach the final screening concentration (10 μM), i.e. 3 μl in 33 μl of final reaction volume (dilution 1/11) and a final concentration of DMSO of 0.3% (v/v) in the well. • Protocol:
(§5) The incubation takes place for 3 hours 30 minutes at room temperature before reading the fluorescence in delayed time on the WALLAC Victor^2 reader with the filters corresponding to the fluorescence of europium (excitation filter: 340 nm, emission filter: 615 nm).
(§6) The inhibitors are diluted using solutions with concentrations of less than 20 mM in DMSO, and then prediluted in the caspase buffer. […] The specificity factor for caspase-10 is calculated as the following ratio:

[2] = target: T2, Recombinant human caspase-3 (Homo sapiens, UniProt P42574); assay: delayed-time fluorescence caspase inhibition test, caspase-3
T2 sequence (P42574 29-277): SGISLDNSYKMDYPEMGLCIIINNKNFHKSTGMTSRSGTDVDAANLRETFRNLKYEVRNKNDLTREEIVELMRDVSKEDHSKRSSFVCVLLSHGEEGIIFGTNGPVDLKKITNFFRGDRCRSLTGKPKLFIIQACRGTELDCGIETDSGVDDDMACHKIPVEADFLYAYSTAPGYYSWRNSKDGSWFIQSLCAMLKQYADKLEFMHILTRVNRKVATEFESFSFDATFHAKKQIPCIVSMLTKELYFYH
Procedure: as §1, §2
20 μl of this solution are distributed per well of the assay plate. […] The assay is performed with 1 U of enzyme per well, by distributing 20 μl of the diluted solution per well. • The standard inhibitors: The standard inhibitors are dissolved in DMSO to a concentration of 10 mM. They are tested at IC20 and at IC50 on the caspases they inhibit (see following table). The concentrations mentioned in the table are the final concentrations in the assay wells.
as §4
The volumes and the protocol were optimised for automated use.
as §5
The inhibitors are diluted using solutions with concentrations of less than 20 mM in DMSO, and then prediluted in the caspase buffer.

[3] = target: T3, Recombinant human caspase-6 (Homo sapiens, UniProt P55212); assay: delayed-time fluorescence caspase inhibition test, caspase-6
T3 sequence (P55212 24-293): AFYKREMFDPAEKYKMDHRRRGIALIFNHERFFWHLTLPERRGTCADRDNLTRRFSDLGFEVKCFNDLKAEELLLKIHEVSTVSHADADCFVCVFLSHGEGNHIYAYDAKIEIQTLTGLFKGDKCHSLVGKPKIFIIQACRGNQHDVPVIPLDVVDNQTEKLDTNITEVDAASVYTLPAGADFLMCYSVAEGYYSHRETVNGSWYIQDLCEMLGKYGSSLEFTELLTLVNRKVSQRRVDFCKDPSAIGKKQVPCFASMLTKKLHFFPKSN
Procedure: as §1, §2, §3, §4, §5, §6

[4] = target: Recombinant human caspase-8 (Homo sapiens, UniProt Q14790); assay: delayed-time fluorescence caspase inhibition test, caspase-8
Chain of Recombinant human caspase-8 (Q14790 217-479): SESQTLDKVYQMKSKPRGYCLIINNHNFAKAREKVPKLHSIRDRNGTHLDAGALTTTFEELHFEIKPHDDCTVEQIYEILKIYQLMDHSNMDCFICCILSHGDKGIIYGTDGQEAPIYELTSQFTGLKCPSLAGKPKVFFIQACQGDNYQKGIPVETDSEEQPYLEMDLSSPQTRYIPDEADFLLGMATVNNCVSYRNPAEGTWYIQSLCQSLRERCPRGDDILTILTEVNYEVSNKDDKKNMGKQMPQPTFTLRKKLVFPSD
Procedure: as §1, §2, §3, §4, §5, §6

[5] = target: T4, Recombinant human caspase-9 (Homo sapiens, UniProt P55211); assay: delayed-time fluorescence caspase inhibition test, caspase-9
T4 sequence (P55211 1-416): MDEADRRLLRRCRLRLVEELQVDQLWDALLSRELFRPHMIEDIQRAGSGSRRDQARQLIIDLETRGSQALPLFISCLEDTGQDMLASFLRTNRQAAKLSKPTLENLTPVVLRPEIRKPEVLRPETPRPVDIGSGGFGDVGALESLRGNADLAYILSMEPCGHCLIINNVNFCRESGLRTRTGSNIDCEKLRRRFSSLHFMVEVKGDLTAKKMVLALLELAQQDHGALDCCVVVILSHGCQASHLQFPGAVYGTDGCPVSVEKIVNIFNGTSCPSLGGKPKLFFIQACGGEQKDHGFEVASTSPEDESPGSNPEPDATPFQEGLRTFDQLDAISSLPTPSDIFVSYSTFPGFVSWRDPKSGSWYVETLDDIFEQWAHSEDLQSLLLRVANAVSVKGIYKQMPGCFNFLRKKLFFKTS
Procedure: as §1, §2, §3, §4, §5, §6

[6] = target: T5, Recombinant human caspase-10 (Homo sapiens, UniProt Q92851); assay: delayed-time fluorescence caspase inhibition test, caspase-10
T5 sequence (Q92851 220-521): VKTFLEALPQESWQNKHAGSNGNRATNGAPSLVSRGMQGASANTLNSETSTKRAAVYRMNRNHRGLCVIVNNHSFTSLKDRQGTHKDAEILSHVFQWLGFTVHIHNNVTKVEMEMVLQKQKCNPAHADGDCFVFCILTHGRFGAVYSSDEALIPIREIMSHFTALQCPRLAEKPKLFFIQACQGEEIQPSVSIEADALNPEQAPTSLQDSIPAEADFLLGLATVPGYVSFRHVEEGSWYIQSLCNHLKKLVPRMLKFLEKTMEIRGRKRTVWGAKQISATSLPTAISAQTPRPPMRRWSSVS
Procedure: as §1, §2, §3, §4, §5, §6

[7] = read-out: IC20 of standard inhibitor

| SMILES | IC50 [1] | IC50 [2] | IC50 [3] | IC50 [4] | IC50 [5] | IC50 [6] | other results |
| --- | --- | --- | --- | --- | --- | --- | --- |
| O=S(=O)(NCC1(Cc2ccc(CCO)cc2)CCCC1)c1ccc(Cl)c(C(F)(F)F)c1 [Example 65] | > 200 µM | > 200 µM | > 200 µM | > 200 µM | > 25 µM | 0.25 µM |  |
| O=S(=O)(NCC1(Cc2ccc(CCO)cc2)CCCC1)c1cc(Cl)cc(Cl)c1 [Example 62] | > 200 µM | > 200 µM | > 200 µM | > 200 µM | > 200 µM | 6.22 µM |  |
| O=S(=O)(NCC1(Cc2ccc(CCO)cc2)CCCC1)c1ccc(Cl)cc1 [Example 33] |  |  |  |  |  |  | IC50 ([1]; read-out: Inhibition IC50 Caspase-2, tested 100 nM to 200 μM, 1% DMSO, 3 h 30 min at room temperature): > 200 µM; IC50 ([2]; read-out: Inhibition IC50 Caspase-3, tested 100 nM to 200 μM, 1% DMSO, 3 h 30 min at room temperature): > 200 µM; IC50 ([3]; read-out: Inhibition IC50 Caspase-6, tested 100 nM to 200 μM, 1% DMSO, 3 h 30 min at room temperature): > 200 µM; IC50 ([4]; read-out: Inhibition IC50 Caspase-8, tested 100 nM to 200 μM, 1% DMSO, 3 h 30 min at room temperature): > 200 µM; IC50 ([5]; read-out: Inhibition IC50 Caspase-9, tested 100 nM to 200 μM, 1% DMSO, 3 h 30 min at room temperature): > 200 µM; IC50 ([6]; read-out: Inhibition IC50 Caspase-10, tested 100 nM to 200 μM, 1% DMSO, 3 h 30 min at room temperature): 1.7 µM |
| O=S(=O)(NCC1(Cc2ccc(CCOCC3CC3)cc2)CCC1)c1ccc(Cl)cc1Cl [Example 1, 2,4-Dichloro-N-[(1-{4-[2-(cyclopropylmethoxy)ethyl]benzyl}cyclobutyl)methyl]benzenesulfonamide] | > 200 µM | > 200 µM | > 200 µM | > 200 µM | > 200 µM | 0.22 µM |  |
| Cc1ccc(S(=O)(=O)NCC2(Cc3ccc(CCO)cc3)CCCC2)cc1 [Example 59] | > 200 µM | > 200 µM | > 200 µM | > 200 µM | > 200 µM | 4.06 µM |  |
| COc1ccc(S(=O)(=O)NCC2(Cc3ccc(CCOCC4CC4)cc3)CCC2)cc1 [Example 5, N-[(1-{4-[2-(cyclopropylmethoxy)ethyl]benzyl}cyclobutyl)methyl]-4-methoxy-benzenesulfonamide] | > 200 µM | > 200 µM | > 200 µM | > 200 µM | > 200 µM | 3.59 µM |  |
| O=S(=O)(NCC1(Cc2ccc(CCO)cc2)CCCC1)c1ccc(C(F)(F)F)cc1 [Example 49] | > 200 µM | > 200 µM | > 200 µM | > 200 µM | > 200 µM | 3.14 µM |  |
| O=S(=O)(NCC1(Cc2ccc(CCO)cc2)CCCC1)c1c(F)c(F)c(F)c(F)c1F [Example 58] | > 200 µM | > 200 µM | > 200 µM | > 200 µM | 46.7 µM | 0.143 µM |  |
| O=S(=O)(NCC1(Cc2ccc(CCO)cc2)CCCC1)c1cccc(Cl)c1 [Example 34] | > 200 µM | > 200 µM | > 200 µM | > 200 µM | > 200 µM | 3.5 µM |  |
| CC[C@H](C)[C@H](NC(=O)[C@H](CCC(=O)OC)NC(=O)[C@@H](NC(=O)OCc1ccccc1)C(C)C)C(=O)N[C@@H](CC(=O)OC)C(=O)CF [z- VEID - fmk, z-VE(OMe)ID(OMe)-fmk, reference compound] (Cbz-VE(OMe)ID(OMe)-CH2F) |  |  |  |  |  |  | IC20 [3, 7]: 3 µM |
| CS(=O)(=O)CCc1ccc(CC2(CNS(=O)(=O)c3ccc(Cl)cc3Cl)CCC2)cc1 [Example 27, 2,4-dichloro-N-[(1-{4-[2-(methylsulfonyl)ethyl]benzyl}cyclobutyl)methyl]benzenesulfonamide] | > 200 µM | > 200 µM | > 200 µM | > 200 µM | > 200 µM | 0.235 µM |  |
| COC(=O)CC[C@H](NC(=O)[C@H](CC(C)C)NC(=O)OCc1ccccc1)C(=O)N[C@@H](Cc1c[nH]cn1)C(=O)N[C@@H](CC(=O)OC)C(=O)CF [z-LEHD - fmk, z-LE(OMe)HD(OMe)-fmk, reference compound] (Cbz-LE(OMe)HD(OMe)-CH2F) |  |  |  |  |  |  | IC20 [5, 7]: 0.2 µM |
| CC[C@H](C)[C@H](NC(=O)OCc1ccccc1)C(=O)N[C@@H](CCC(=O)OC)C(=O)N[C@H](C(=O)N[C@@H](CC(=O)OC)C(=O)CF)[C@@H](C)O [z- IETD - fmk, z-IE(OMe)TD(OMe)-fmk, reference compound] (Cbz-IE(OMe)TD(OMe)-CH2F) |  |  |  |  |  |  | IC20 [4, 7]: 1.5 µM; IC20 [6, 7]: 0.08 µM |
| COC(=O)C[C@H](NC(=O)[C@H](C)NC(=O)[C@@H](NC(=O)[C@H](CC(=O)OC)NC(=O)OCc1ccccc1)C(C)C)C(=O)CF [z- DVAD - fmk, reference compound] (Cbz-D(OMe)VAD(OMe)-CH2F) |  |  |  |  |  |  | IC20 [1, 7]: 3 µM |
